Laboratory results published in US10251889B2, “Substituted pyrazolo[1,5-a]pyrimidine compounds as Trk kinase inhibitors” (Array BioPharma, Inc., priority 2009, dated 2019).

Target: Jak2 (human Jak2 kinase domain, amino acids 808-1132) (Homo sapiens (Human), UniProt O60674)
Experiment: Jak2 inhibition assay (Omnia kinase assay)
Assay type: biochemical
Conditions: read-out: Jak2 Enzyme (% inhibition at 1000 nM), Table 1; 1000 nM test compound

Chain of Jak2 (human Jak2 kinase domain, amino acids 808-1132) (O60674 808-1132): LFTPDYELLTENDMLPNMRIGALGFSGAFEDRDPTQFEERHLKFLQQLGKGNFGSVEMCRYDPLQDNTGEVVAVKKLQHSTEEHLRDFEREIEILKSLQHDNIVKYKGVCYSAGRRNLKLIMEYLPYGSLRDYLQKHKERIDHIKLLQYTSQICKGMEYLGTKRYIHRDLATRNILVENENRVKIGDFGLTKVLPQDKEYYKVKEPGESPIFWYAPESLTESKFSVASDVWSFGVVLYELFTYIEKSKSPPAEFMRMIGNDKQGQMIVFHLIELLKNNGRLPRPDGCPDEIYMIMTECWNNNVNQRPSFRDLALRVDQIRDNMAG

| inhibition at 1 µM [%] | SMILES |
| --- | --- |
| 16.9 | CC[C@@H](CO)NC(=O)c1cnn2ccc(N3CCC[C@@H]3c3cc(F)ccc3F)nc12 [Example 178, 5-((R)-2-(2,5-difluorophenyl)pyrrolidin-1-yl)-N-((S)-1-hydroxybutan-2-yl)pyrazolo[1,5-a]pyrimidine-3-carboxamide] |
| 0.1 | CC(C)(O)CNC(=O)c1cnn2ccc(N3CCC[C@@H]3c3cncc(F)c3)nc12 [Example 111, (R)-5-(2-(5-fluoropyridin-3-yl)pyrrolidin-1-yl)-N-(2-hydroxy-2-methylpropyl)pyrazolo[1,5-a]pyrimidine-3-carboxamide] |
| 7.1 | O=C(NC1(CO)CC1)c1cnn2ccc(N3CCC[C@@H]3c3cncc(F)c3)nc12 [Example 107, (R)-5-(2-(5-fluoropyridin-3-yl)pyrrolidin-1-yl)-N-(1-(hydroxymethyl)cyclopropyl)pyrazolo [1,5-a]pyrimidine-3-carboxamide] |
| 4.4 | O=C(c1cnn2ccc(N3CCC[C@@H]3c3cncc(F)c3)nc12)N1CCCC1 [Example 94, (R)-(5-(2-(5-fluoropyridin-3-yl)pyrrolidin-1-yl)pyrazolo[1,5-a]pyrimidin-3-yl)(pyrrolidin-1-yl)methanone] |
| 13.8 | C[C@H](O)CNC(=O)c1cnn2ccc(N3CCC[C@@H]3c3cc(F)ccc3F)nc12 [Example 166, 5-((R)-2-(2,5-difluorophenyl)pyrrolidin-1-yl)-N-(2-hydroxypropyl)pyrazolo[1,5-a]pyrimidine-3-carboxamide] |
| 15.2 | C[C@H](NC(=O)c1cnn2ccc(N3[C@@H](c4cncc(F)c4)CC[C@@]3(C)CO)nc12)C(F)(F)F [Example 220, 5-((2S,5R)-5-(5-fluoropyridin-3-yl)-2-(hydroxymethyl)-2-methylpyrrolidin-1-yl)-N—((S)-1,1,1-trifluoropropan-2-yl)pyrazolo[1,5-a]pyrimidine-3-carboxamide] |
| 10.1 | Cc1cccnc1NC(=O)c1cnn2ccc(N3CCC[C@@H]3c3cc(F)ccc3F)nc12 [Example 3, (R)-5-(2-(2,5-difluorophenyl)pyrrolidin-1-yl)-N-(3-methylpyridin-2-yl)pyrazolo[1,5-a]pyrimidine-3-carboxamide] |
| 11.5 | CC(C)(C)NC(=O)c1cnn2ccc(N3CCC[C@@H]3c3cc(F)c[nH]c3=O)nc12 [Example 202, (R)—N-tert-butyl-5-(2-(5-fluoro-2-oxo-1,2-dihydropyridin-3-yl)pyrrolidin-1-yl)pyrazolo[1,5-a]pyrimidine-3-carboxamide] |
| 4.7 | CC(C)(N)CNC(=O)c1cnn2ccc(N3CCC[C@@H]3c3cc(F)ccc3F)nc12 [Example 58, (R)—N-(2-amino-2-methylpropyl)-5-(2-(2,5-difluorophenyl)pyrrolidin-1-yl)pyrazolo[1,5-a]pyrimidine-3-carboxamide] |
| 17.2 | COc1ccc(F)cc1[C@H]1CCCN1c1ccn2ncc(C(=O)NCC(C)(C)O)c2n1 [Example 49, (R)-5-(2-(5-fluoro-2-methoxyphenyl)pyrrolidin-1-yl)-N-(2-hydroxy-2-methylpropyl)pyrazolo[1,5-a]pyrimidine-3-carboxamide] |
| 73.1 | C[C@@H](NC(=O)c1cnn2ccc(N3CCC[C@@H]3c3cc(F)cn(C)c3=O)nc12)C1CC1 [Example 235, N-((R)-1-cyclopropylethyl)-5-((R)-2-(5-fluoro-1-methyl-2-oxo-1,2-dihydropyridin-3-yl)pyrrolidin-1-yl)pyrazolo[1,5-a]pyrimidine-3-carboxamide] |
| 12.9 | Cn1ccc(NC(=O)c2cnn3ccc(N4CCC[C@@H]4c4cc(F)ccc4F)nc23)n1 [Example 6, (R)-5-(2-(2,5-difluorophenyl)pyrrolidin-1-yl)-N-(1-methyl-1H-pyrazol-3-yl)pyrazolo[1,5-a]pyrimidine-3-carboxamide] |
| -0.3 | C[C@H](O)CNC(=O)c1cnn2ccc(N3CCC[C@@H]3c3cncc(F)c3)nc12 [Example 109, 5-((R)-2-(5-fluoropyridin-3-yl)pyrrolidin-1-yl)-N-((S)-2-hydroxypropyl)pyrazolo[1,5-a]pyrimidine-3-carboxamide] |
| 5.4 | NC(=O)c1cnn2ccc(N3CCC[C@@H]3c3cc(F)cc(OCC(O)CO)c3)nc12 (stereo partly drawn) [Example 209, 5-((2R)-2-(3-(2,3-dihydroxypropoxy)-5-fluorophenyl)pyrrolidin-1-yl)pyrazolo[1,5-a]pyrimidine-3-carboxamide] |
| 47.5 | CNC(=O)c1cnn2ccc(N3CCC[C@@H]3c3cc(F)ccc3F)nc12 [Example 10, (R)-5-(2-(2,5-difluorophenyl)pyrrolidin-1-yl)-N-methylpyrazolo[1,5-a]pyrimidine-3-carboxamide] |
| -1.2 | Nc1ncc(F)cc1[C@H]1CCCN1c1ccn2ncc(C(=O)N3CCC3)c2n1 [Example 221, (R)-(5-(2-(2-amino-5-fluoropyridin-3-yl)pyrrolidin-1-yl)pyrazolo[1,5-a]pyrimidin-3-yl)(azetidin-1-yl)methanone] |

| inhibition at 1 µM [%] | SMILES |
| --- | --- |
| 9.4 | COc1ncc(F)cc1[C@H]1CCCN1c1ccn2ncc(C(=O)NCCCNC(=O)OC(C)(C)C)c2n1 [Example 141, (R)-tert-butyl 3-(5-(2-(5-fluoro-2-methoxypyridin-3-yl)pyrrolidin-1-yl)pyrazolo[1,5-a]pyrimidine-3-carboxamido)propylcarbamate] |
| 69.1 | C[C@H](NC(=O)c1cnn2ccc(N3CCC[C@@H]3c3cc(F)cn(C)c3=O)nc12)C1CC1 [Example 236, N-((S)-1-cyclopropylethyl)-5-((R)-2-(5-fluoro-1-methyl-2-oxo-1,2-dihydropyridin-3-yl)pyrrolidin-1-yl)pyrazolo[1,5-a]pyrimidine-3-carboxamide] |
| 6.3 | C[C@H](O)[C@@H](CO)NC(=O)c1cnn2ccc(N3CCC[C@@H]3c3cc(F)ccc3F)nc12 [Example 176, 5-((R)-2-(2,5-difluorophenyl)pyrrolidin-1-yl)-N-((2R,3S)-1,3-dihydroxybutan-2-yl)pyrazolo[1,5-a]pyrimidine-3-carboxamide] |
| 9.8 | Cn1cc(CNC(=O)c2cnn3ccc(N4CCC[C@@H]4c4cc(F)ccc4F)nc23)cn1 [Example 22, (R)-5-(2-(2,5-difluorophenyl)pyrrolidin-1-yl)-N-((1-methyl-1H-pyrazol-4-yl)methyl)pyrazolo[1,5-a]pyrimidine-3-carboxamide] |
| 50.7 | COc1ncc(F)cc1[C@H]1CCCN1c1ccn2ncc(C(=O)NC(C)(C)C)c2n1 [Example 80, (R)—N-tert-butyl-5-(2-(5-fluoro-2-methoxypyridin-3-yl)pyrrolidin-1-yl)pyrazolo[1,5-a]pyrimidine-3-carboxamide] |
| 11 | COCCNC(=O)c1cnn2ccc(N3CCC[C@@H]3c3cc(F)ccc3F)nc12 [Example 172, 5-((R)-2-(2,5-difluorophenyl)pyrrolidin-1-yl)-N-(2-methoxyethyl)pyrazolo[1,5-a]pyrimidine-3-carboxamide] |
| 99.9 | O=C(N[C@H]1CC[C@H](C(=O)O)CC1)c1cnn2ccc(N3CCC[C@@H]3c3cc(F)ccc3F)nc12 [Example 33, Trans-4-(5-((R)-2-(2,5-difluorophenyl)pyrrolidin-1-yl)pyrazolo[1,5-a]pyrimidine-3-carboxamido)cyclohexanecarboxylic Acid] |
| 67.3 | COCCOc1ccc(F)cc1[C@H]1CCCN1c1ccn2ncc(C(=O)NC3CC3)c2n1 [Example 90, (R)—N-cyclopropyl-5-(2-(5-fluoro-2-(2-methoxyethoxy)phenyl)pyrrolidin-1-yl)pyrazolo[1,5-a]pyrimidine-3-carboxamide] |
| 3.7 | CC(C)[C@@H](CO)NC(=O)c1cnn2ccc(N3CCC[C@@H]3c3cncc(F)c3)nc12 [Example 121, 5-((R)-2-(5-fluoropyridin-3-yl)pyrrolidin-1-yl)-N-((S)-1-hydroxy-3-methylbutan-2-yl)pyrazolo[1,5-a]pyrimidine-3-carboxamide] |
| 2.3 | O=C(NC1CCC[C@@H]1O)c1cnn2ccc(N3CCCC3c3cncc(F)c3)nc12 (stereo partly drawn) [Example 120, 5-((R)-2-(5-fluoropyridin-3-yl)pyrrolidin-1-yl)-N-((trans)-2-hydroxycyclopentyl)pyrazolo[1,5-a]pyrimidine-3-carboxamide] |
| 64.4 | COc1ncc(F)cc1[C@H]1CCCN1c1ccn2ncc(C(=O)N[C@H]3CC[C@H](O)C3)c2n1 [Example 154, 5-((R)-2-(5-fluoro-2-methoxypyridin-3-yl)pyrrolidin-1-yl)-N-((1S,3S)-3-hydroxycyclopentyl)pyrazolo[1,5-a]pyrimidine-3-carboxamide] |
| 13.8 | CS(=O)(=O)NCCNC(=O)c1cnn2ccc(N3CCC[C@@H]3c3cc(F)ccc3F)nc12 [Example 46, (R)-5-(2-(2,5-difluorophenyl)pyrrolidin-1-yl)-N-(2-(methylsulfonamido)ethyl)pyrazolo[1,5-a]pyrimidine-3-carboxamide] |
| -4.5 | COCC(C)NC(=O)c1cnn2ccc(N3CCCC3c3cncc(F)c3)nc12 [Example 118, 5-((R)-2-(5-fluoropyridin-3-yl)pyrrolidin-1-yl)-N-(1-methoxypropan-2-yl)pyrazolo[1,5-a]pyrimidine-3-carboxamide] |
| 77.4 | O=C(N[C@H]1CC[C@H](O)CC1)c1cnn2ccc(N3CCC[C@@H]3c3cccc(F)c3)nc12 [Example 35, 5-((R)-2-(3-fluorophenyl)pyrrolidin-1-yl)-N-((trans)-4-hydroxycyclohexyl)pyrazolo[1,5-a]pyrimidine-3-carboxamide] |
| 26.8 | O=C(NCCO)c1cnn2ccc(N3CCCC3c3cc(F)ccc3F)nc12 (centres unmarked) [Example 165, 5-(2-(2,5-difluorophenyl)pyrrolidin-1-yl)-N-(2-hydroxyethyl)pyrazolo[1,5-a]pyrimidine-3-carboxamide] |

| SMILES | inhibition at 1 µM [%] |
| --- | --- |
| COc1ncc(F)cc1[C@H]1CCCN1c1ccn2ncc(C(=O)NOCCOC(C)(C)C)c2n1 [Example 152, (R)-N-(2-tert-butoxyethoxy)-5-(2-(5-fluoro-2-methoxypyridin-3-yl)pyrrolidin-1-yl)pyrazolo[1,5-a]pyrimidine-3-carboxamide] | 7.6 |
